# Source: US7968107B2, “Oil-based suspension concentrates” (Bayer Cropscience AG, priority 2004, dated 2011)
# Assay: Penetrants at the level of the cuticle (desorption method, tracer mobility with and without additive)
# Conditions: mobility of radiolabelled weak organic acid tracer in peach leaf cuticle; receptor buffer pH 7
# Description: Additives which act as penetrants at the level of the cuticle may be referred to below as accelerator additives (cf. Schönherr and Baur, 1994, Pesticide Science 42, 185-208). The feature of accelerator additives is their ability to penetrate from the aqueous spray liquor and/or from the spray covering into the cuticle and thereby to increase the mobility of active substances in the cuticle. Other additives such as polyethylene glycol, in contrast, act only in the spray covering (via the liquid phase) or act only as wetting agents, such as sodium dodecyl sulphate, for example.
# This test determines the influence of additives on the penetration properties of other substances at the level of the cuticle. The mobility of the test substance in the cuticle is measured with and without an additive, by way of a desorption method. The method is published in detail in the literature (Baur et al., 1997, Pesticide Science, 51, 131-152) and only the principles and any deviations are described below.
# As a test substance with the function of a tracer a selection was made here of a radiolabelled weak organic acid. Plant material used comprised the enzymatically isolated leaf cuticles of the top face of peach leaves from outdoor trees. The cuticles were installed in specially manufactured stainless steel diffusion cells. The tracer, in a citrate buffer at a pH of 3 in the dissolved state, was applied to the side originally facing the inside of the leaf. This inner side readily takes up the small radioactive amount of the tracer in the undissociated acid form. Subsequently this inner side was covered and maintained at 100% atmospheric humidity. The morphological outer side of the leaf cuticle, normally exposed to the air, was then contacted with a buffer (pH 7), with the receptor solution, and the desorption was started. The penetrated acid form of the test substance is dissociated by the receptor and the desorption follows first-order kinetics. The desorption constant is proportional to the mobility of the tracer in the cuticle. […]
row,Substance,Average effect (ratio of desorption slopes with additive to without additive)
1,CH3—(CH2)8—O—(-EO—)8—(—BO—)2—CH3 [Ie-2],89.1
2,CH3—(CH2)10—O—(-EO—)6—(—BO—)2—CH3 [Ie-1],78.4
3,"isotridecyl-(6) ethoxylate [Isotridecyl-(6) ethoxylate, open, reference compound]",42.3
